Our source for the IC50 values is patent US20250129021A1, “SMALL MOLECULE PROTEIN SYNTHESIS MODULATORS” (Interdict Bio, Inc., priority 2023, published 2025).

Structures are written as SMILES. pIC50: −log10 of the molar value.

Common to all, as to format: biochemical
Experiment [1] concerns MYC. In words: In vitro transcription-translation (IVTT) assay, MYC reporter. Conditions: IVTT assay, HeLa S3 lysate, MYC reporter, normalized sfGFP/mCherry ratio; half-log dilutions 30 μM-0.1 μM, 2 hrs at 30° C. In a few lines:
(§1)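 Reporter: mCherry, P2A, then 3×FLAG-target peptide-sfGFP fusion, IRES-initiated; HeLa S3 lysate IVTT; cpd dilutions 30 μM−0.1 μM half-log in 100% DMSO (dilution-plate conc); DNA added last; 2 h, 30° C; PBS quench.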

Experiment [2] concerns CCNTB1. The experiment can be described thus: In vitro transcription-translation (IVTT) assay, CCNTB1 reporter. As to conditions: HeLa S3 lysate, 2 hrs at 30° C. As to the method: Each preparation takes 8 cell pellets (4 ml packed volume each, approximately 1.0×10^9 cells per pellet). Thaw cell pellets from −80° C. on ice for 90 mins. Lay pellets horizontally on top of the ice and rotate every 30 mins to ensure even thawing. Once thawed, add 4 mL of cold lysis buffer to each pellet, and using a serological pipet, gently pipet up and down to break up clumps. Incubate resuspended cells in ice for an additional 30 mins (plunged into ice). During 30 min incubation, rinse and RNase-zap (Ambion) glass dounces (use loose pestle “A”), gently dry and place on ice until needed. Prepare RNase-free Eppendorf tubes for spinning and for batch storage. Add batch labels to 1.5-1.7 mL RNase-free microcentrifuge tubes (labeling scheme below). Each batch will have an extra 1.5-1.7 mL RNase-free microcentrifuge tube for 40 μL of lysate, label the top of this tube (labeling scheme below). After 30 min incubation, transfer all 8 mL of cell pellet to dounce. Cell lysis is complete after douncing 100 times. Aliquot cell lysis into 1.5-1.7 mL temporary-microcentrifuge tubes. Place tubes in centrifuge with “fins” out, and spin at 1,200×g for 5 mins. After the first spin use a 1 mL pipet to resuspend each tube and repeat spin. This acts as an additional lysis step, is more vigorous and increases lysate yield. During second spin get liquid N2 and a fresh conical tube on ice. After spin is complete, transfer supernatant (lysate) from microcentrifuge tubes into the 50 mL conical tube and keep on ice. Repeat steps 10-14 for all other cell pellets until completed. Once all cell lysate has been transferred to the 50 mL conical tube pipet to mix so the solution is homogenous. Transfer 1 mL of lysate into batch-labeled microcentrifuge tubes and flash freeze in liquid nitrogen. Be sure to pipet up and down to mix throughout transfer step. Place all tubes in the […] for long-term storage.
In vitro transcription-translation assay setup: Each assay includes a master mix containing lysate and shared components, a 96-well plate containing compound titrations for testing, a 96-well DNA plate with reporter constructs to be tested, 96-well skirted PCR plates, and 96-well flat-bottom, black, fluorescent assay plates. Reaction materials setup: (A) Master mix—15 mL conical tube (3 mL of HeLa S3 Lysate described above; 0.6 mL of ThermoFisher Accessory Proteins (#88882); 1.2 ml of ThermoFisher Reaction Mix (#88882); 0.54 mL of nuclease-free Water); (B) 96-Well Master Mix+Compound Plate (Half-log dilutions (30 μM−0.1 μM) of 4 compounds of interest are prepared in 100% DMSO); 96-Well DNA Plate (Five DNA constructs are plated into single columns within the plate. Row 1 of the column contains nuclease free H2O, all other wells contain 110 ng/μL plasmid DNA). Reactions are started by mixing 155 μL of master mix and 3.5 μL of compound serial dilutions, then 9.1 μL of master mix+compound mixture is aliquoted across 5 96-well plates. Reactions begin with final addition of 2 μL of DNA for a 11.1 μL reaction volume in each well. The entire plate is sealed, and incubated for 2 hrs at 30° C. After 2 hrs, quench the assay using 45 μL of PBS, and transfer 50 μL to a flat-bottom black microplate Quantify the sfGFP and mCherry signals from each well on each plate, taking 3 reads of each plate, and perform data analysis below.
In vitro transcription-translation assay data analysis: Each plate is read three times in channels for both sfGFP and mCherry signals. The average signal across these 3 reads is then calculated for further analysis. Control wells containing no DNA reporter are subtracted from reporter wells in the same column to remove auto-fluorescence of the lysate. Then, the ratio of sfGFP/mCherry is calculated per well, and these ratios are averaged across the triplicate experiments on the same plate. Finally, the ratio of each titration concentration is normalized to the no drug control to create the normalized stalling metric. […]

For experiment [3], the system named is CCND1. In words: In vitro transcription-translation (IVTT) assay, CCND1 reporter. As to conditions: IVTT, HeLa S3 lysate, 2 hrs at 30° C. In a few lines:
as §1

Experiment [4] deals with MCL-1. In words: In vitro transcription-translation (IVTT) assay, MCL-1 reporter. As to conditions: IVTT, HeLa S3 lysate, 2 hrs at 30° C.; read-out: MCL1 IC50. In a few lines: as §1

Usually pIC50 stands for the IC50 on a negative log10 scale, so that one unit is a factor of ten. As to `COc1ccc(C[C@H]2NC[C@H](O)[C@H]2OC(=O)NCCc2ccc3c(c2)CNC3)cc1` [V188344, (2R,3S,4S)-4-hydroxy-2-[(4-methoxyphenyl)methyl]pyrrolidin-3-yl N-[2-(2,3-dihydro-1H-isoindol-5-yl)ethyl]carbamate], the pIC50 in experiment [1], in experiment [2], in experiment [3] and in experiment [4] was more than 5.00 each time.
For `COc1ccc(C[C@H]2NC[C@H](O)[C@H]2OC(=O)NCc2ccc3c(c2)CCNC3)cc1` [V188345, (2R,3S,4S)-4-hydroxy-2-[(4-methoxyphenyl)methyl]pyrrolidin-3-yl N-(1,2,3,4-tetrahydroisoquinolin-6-ylmethyl)carbamate], the pIC50 in experiment [1], in experiment [2], in experiment [3] and in experiment [4] was more than 5.00 each time.
Take `COc1ccc(C[C@H]2NC[C@H](O)[C@H]2OC(=O)NCc2ccc3cnccc3c2)cc1` [V188348, (2R,3S,4S)-4-hydroxy-2-[(4-methoxyphenyl)methyl]pyrrolidin-3-yl N-(isoquinolin-6-ylmethyl)carbamate]: the pIC50 in experiment [1], in experiment [2], in experiment [3] and in experiment [4] was more than 5.00 throughout.
For the molecule `COc1ccc(C[C@H]2NC[C@H](O)[C@H]2OC(=O)NCc2ccc(C3CCNC3)cc2)cc1` (stereo partly drawn) [V188354, (2R,3S,4S)-4-hydroxy-2-[(4-methoxyphenyl)methyl]pyrrolidin-3-yl N-{[4-(pyrrolidin-3-yl)phenyl]methyl}carbamate], the pIC50 in experiment [1], in experiment [2], in experiment [3] and in experiment [4] was more than 5.00 each time.
As to `COc1ccc(C[C@H]2NC[C@H](O)[C@H]2OC(=O)NCc2ccc(C3CCCN3)cc2)cc1` (stereo partly drawn) [V188355, (2R,3S,4S)-4-hydroxy-2-[(4-methoxyphenyl)methyl]pyrrolidin-3-yl N-{[4-(pyrrolidin-2-yl)phenyl]methyl}carbamate], the pIC50 in experiment [1], in experiment [2], in experiment [3] and in experiment [4] was more than 5.00 each time.
For the molecule `COc1ccc(C[C@H]2NC[C@H](O)[C@H]2OC(=O)NCc2ccnc3c2CCN3)cc1` [V188360, (2R,3S,4S)-4-hydroxy-2-[(4-methoxyphenyl)methyl]pyrrolidin-3-yl N-{1H,2H,3H-pyrrolo[2,3-b]pyridin-4-ylmethyl}carbamate], the pIC50 in experiment [1], in experiment [2], in experiment [3] and in experiment [4] was more than 5.00 in each case.
Consider `COc1ccc(C[C@H]2NC[C@H](O)[C@H]2OC(=O)NCc2ccc(Cl)s2)cc1` [V188373, (2R,3S,4S)-4-hydroxy-2-[(4-methoxyphenyl)methyl]pyrrolidin-3-yl N-[(5-chlorothiophen-2-yl)methyl]carbamate], for which the pIC50 in experiment [1], in experiment [2], in experiment [3] and in experiment [4] was more than 5.00 each time.
Consider `CCCOc1ccc(C[C@H]2NC[C@H](O)[C@H]2OC(=O)NCc2ccccc2)cc1` [V188376, (2R,3S,4S)-4-hydroxy-2-[(4-propoxyphenyl)methyl]pyrrolidin-3-yl N-benzylcarbamate], for which the pIC50 in experiment [1] was more than 5.00; in experiment [2] it was more than 5.00; in experiment [3], 4.70 to 5.00; in experiment [4], more than 5.00.
As for `COc1ccc(C[C@H]2NC[C@H](O)[C@H]2OC(=O)NCc2ccc(C#N)cc2)cc1` [V188377, (2R,3S,4S)-4-hydroxy-2-[(4-methoxyphenyl)methyl]pyrrolidin-3-yl N-[(4-cyanophenyl)methyl]carbamate], the pIC50 in experiment [1], in experiment [2], in experiment [3] and in experiment [4] was more than 5.00 throughout.
Take `COc1ccc(C[C@H]2NC[C@H](O)[C@H]2OC(=O)NCc2ccc(F)cc2)cc1` [V188378, (2R,3S,4S)-4-hydroxy-2-[(4-methoxyphenyl)methyl]pyrrolidin-3-yl N-[(4-fluorophenyl)methyl]carbamate]: the pIC50 in experiment [1], in experiment [2], in experiment [3] and in experiment [4] was more than 5.00 each time.
Turning to `COc1ccc(C[C@H]2NC[C@H](O)[C@H]2OC(=O)NCc2cccc(F)c2)cc1` [V188379, (2R,3S,4S)-4-hydroxy-2-[(4-methoxyphenyl)methyl]pyrrolidin-3-yl N-[(3-fluorophenyl)methyl]carbamate], the pIC50 in experiment [1], in experiment [2], in experiment [3] and in experiment [4] was more than 5.00 throughout.
Regarding `COc1ccc(C[C@H]2NC[C@H](O)[C@H]2OC(=O)NCc2cc(F)cc(F)c2)cc1` [V188380, (2R,3S,4S)-4-hydroxy-2-[(4-methoxyphenyl)methyl]pyrrolidin-3-yl N-[(3,5-difluorophenyl)methyl]carbamate], the pIC50 in experiment [1], in experiment [2], in experiment [3] and in experiment [4] was more than 5.00 throughout.
As for `COc1ccc(C[C@H]2NC[C@H](O)[C@H]2OC(=O)NCC2(F)CC2)cc1` [V188381, (2R,3S,4S)-4-hydroxy-2-[(4-methoxyphenyl)methyl]pyrrolidin-3-yl N-[(1-fluorocyclopropyl)methyl]carbamate], the pIC50 in experiment [1] is more than 5.00; in experiment [2], more than 5.00; in experiment [3], 4.70 to 5.00; in experiment [4] it was more than 5.00.
Take `COc1ccc(C[C@H]2NC[C@H](O)[C@H]2OC(=O)NCc2cnoc2)cc1` [V188383, (2R,3S,4S)-4-hydroxy-2-[(4-methoxyphenyl)methyl]pyrrolidin-3-yl N-(1,2-oxazol-4-ylmethyl)carbamate]: the pIC50 in experiment [1], in experiment [2], in experiment [3] and in experiment [4] was more than 5.00 throughout.
With `COc1ccc(C[C@H]2NC[C@H](O)[C@H]2OC(=O)NCc2cnsc2)cc1` [V188384, (2R,3S,4S)-4-hydroxy-2-[(4-methoxyphenyl)methyl]pyrrolidin-3-yl N-(1,2-thiazol-4-ylmethyl)carbamate], the pIC50 in experiment [1], in experiment [2], in experiment [3] and in experiment [4] was more than 5.00 each time.
`Cn1cc(-c2ccc(C[C@H]3NC[C@H](O)[C@H]3OC(=O)NCc3ccccc3)cc2)nn1` [V188392, (2R,3S,4S)-4-hydroxy-2-{[4-(1-methyl-1,2,3-triazol-4-yl)phenyl]methyl}pyrrolidin-3-yl N-benzylcarbamate]: the pIC50 in experiment [1], in experiment [2], in experiment [3] and in experiment [4] was more than 5.00 throughout.
Regarding `COc1ccc(C[C@H]2NC[C@H](O)[C@H]2OC(=O)NCc2ccc(F)c(F)c2)cc1` [V190408, (2R,3S,4S)-4-hydroxy-2-[(4-methoxyphenyl)methyl]pyrrolidin-3-yl N-[(3,4-difluorophenyl)methyl]carbamate], the pIC50 in experiment [1], in experiment [2], in experiment [3] and in experiment [4] was more than 5.00 in each case.
